As a reminder, the TD50 is the dose at which the toxic effect under study appears in half of the subjects.

Calls of active or inactive are those of the source. No rule for the calls is given here.

The test system of this data set is rodent lifetime carcinogenesis bioassay, tumor incidence TD50. Kind of data set: chronic cancer bioassays in animals – CPDB, compiled studies (AID 1745844).

Regarding `COc1c2occc2cc2ccc(=O)oc12`, the TD50 by setting is: (mouse, strain HRA/Skh (hairless), females, in feed, site: skin, lesion: several types, types named in the paper, dosed 52 weeks, study length 80 weeks) 56.8 mg/kg/day (inactive); (mouse, strain HRA/Skh (hairless), females, in feed, site: skin, lesion: squamous-cell carcinoma, dosed 52 weeks, study length 80 weeks) 48.9 mg/kg/day (inactive); (mouse, strain HRA/Skh (hairless), females, in feed, site: skin, lesion: squamous-cell papilloma, dosed 52 weeks, study length 80 weeks) 151 mg/kg/day (inactive); (mouse, strain HRA/Skh (hairless), males, in feed, site: skin, lesion: squamous-cell papilloma, dosed 52 weeks, study length 80 weeks) 137 mg/kg/day (inactive); (rat, strain Fischer 344, females, by gavage, site: any site (literature study), lesion: several types, types named in the paper, dosed 103 weeks, study length 105 weeks) 45.6 mg/kg/day; (rat, strain Fischer 344, females, by gavage, site: liver, lesion: hepatocellular adenoma + hepatocellular carcinoma + neoplastic nodule, dosed 103 weeks, study length 105 weeks) 5140 mg/kg/day. Further, the TD50 is 333 mg/kg/day (inactive) (rat, strain Fischer 344, females, by gavage, site: palate + tongue, lesion: squamous-cell papilloma, dosed 103 weeks, study length 105 weeks); 101 mg/kg/day (rat, strain Fischer 344, males, by gavage, site: Zymbal's gland, lesion: carcinoma, NOS + squamous-cell carcinoma, dosed 103 weeks, study length 105 weeks); 16.1 mg/kg/day (rat, strain Fischer 344, males, by gavage, site: any site (literature study), lesion: several types, types named in the paper, dosed 103 weeks, study length 105 weeks); 27.3 mg/kg/day (rat, strain Fischer 344, males, by gavage, site: kidney + Zymbal's gland, lesion: tubular-cell adenoma + tubular-cell adenocarcinoma + carcinoma, NOS + squamous-cell carcinoma, dosed 103 weeks, study length 105 weeks); 167 mg/kg/day (rat, strain Fischer 344, males, by gavage, site: kidney, lesion: tubular-cell adenocarcinoma, dosed 103 weeks, study length 105 weeks); 32.4 mg/kg/day (rat, strain Fischer 344, males, by gavage, site: kidney, lesion: tubular-cell adenoma + tubular-cell adenocarcinoma, dosed 103 weeks, study length 105 weeks). Besides, the TD50 is, setting by setting: (rat, strain Fischer 344, males, by gavage, site: kidney, lesion: tubular-cell adenoma, dosed 103 weeks, study length 105 weeks) 43.2 mg/kg/day; (rat, strain Fischer 344, males, by gavage, site: lung, lesion: alveolar/bronchiolar adenoma + alveolar/bronchiolar carcinoma, dosed 103 weeks, study length 105 weeks) 57.1 mg/kg/day; (rat, strain Fischer 344, males, by gavage, site: lung, lesion: alveolar/bronchiolar adenoma, dosed 103 weeks, study length 105 weeks) 57.1 mg/kg/day; (rat, strain Fischer 344, males, by gavage, site: lung, lesion: alveolar/bronchiolar carcinoma, dosed 103 weeks, study length 105 weeks) 488 mg/kg/day; (rat, strain Fischer 344, males, by gavage, site: pancreas, lesion: acinar-cell adenoma, dosed 103 weeks, study length 105 weeks) 113 mg/kg/day; (rat, strain Fischer 344, males, by gavage, site: subcutaneous tissue, lesion: fibroma + sarcoma, NOS, dosed 103 weeks, study length 105 weeks) 70.2 mg/kg/day. The TD50 came to 72.6 mg/kg/day (rat, strain Fischer 344, males, by gavage, site: subcutaneous tissue, lesion: fibroma, dosed 103 weeks, study length 105 weeks) and 14.6 mg/kg/day (rat, strain Fischer 344, males, by gavage, site: testis, lesion: interstitial-cell tumor, dosed 103 weeks, study length 105 weeks). Besides, the carcinogen call by setting is: (mouse, strain HRA/Skh (hairless), males, in feed, site: skin, lesion: several types, types named in the paper, dosed 52 weeks, study length 80 weeks) “negative (inactive)”; (mouse, strain HRA/Skh (hairless), males, in feed, site: skin, lesion: squamous-cell carcinoma, in situ, dosed 52 weeks, study length 80 weeks) “negative (inactive)”; (mouse, strain HRA/Skh (hairless), males, in feed, site: skin, lesion: squamous-cell carcinoma, dosed 52 weeks, study length 80 weeks) “negative (inactive)”.
Regarding `CC1=C[C@H]2[C@@]3(O)[C@H](C)[C@@H](O)[C@]4(O)[C@H]([C@@H]3C=C(CO)C[C@]2(O)C1=O)C4(C)C`, the carcinogen call is, setting by setting: (mouse, strain AKR/J, females, i.p., site: lymphoreticular system, lesion: lymphatic leukemia, dosed 104 weeks, study length 104 weeks) “negative (inactive)”; (mouse, strain BALB/c, females, i.p., site: lymphoreticular system, lesion: one or several types, types not named, dosed 104 weeks, study length 104 weeks) “negative (inactive)”; (mouse, strain BALB/c, males, i.p., site: lymphoreticular system, lesion: one or several types, types not named, dosed 104 weeks, study length 104 weeks) “negative (inactive)”; (mouse, strain C3HeB, females, i.p., site: lymphoreticular system, lesion: one or several types, types not named, dosed 104 weeks, study length 104 weeks) “negative (inactive)”; (mouse, strain C3HeB, males, i.p., site: lymphoreticular system, lesion: one or several types, types not named, dosed 104 weeks, study length 104 weeks) “negative (inactive)”; (mouse, strain C57BL, females, i.p., site: lymphoreticular system, lesion: one or several types, types not named, dosed 104 weeks, study length 104 weeks) “negative (inactive)”. In addition, the TD50 is 8.26 mg/kg/day (inactive) (mouse, strain AKR/J, males, i.p., site: lymphoreticular system, lesion: lymphatic leukemia, dosed 104 weeks, study length 104 weeks); 92.6 mg/kg/day (mouse, strain SJL/J, females, i.p., site: lymphoreticular system, lesion: reticulum-cell sarcoma, type B, dosed 104 weeks, study length 104 weeks); 2.21 mg/kg/day (mouse, strain SWR, females, i.p., site: lymphoreticular system, lesion: lymphatic leukemia, dosed 104 weeks, study length 104 weeks).
In the case of `N#CN=C(N)N`, the carcinogen call is “negative (inactive)” (rat, strain F344/DuCrj, females, in feed, site: any site (literature study), lesion: several types, types named in the paper, dosed 104 weeks, study length 113 weeks); “negative (inactive)” (rat, strain F344/DuCrj, females, in feed, site: liver, lesion: one or several types, types not named, dosed 104 weeks, study length 113 weeks); “negative (inactive)” (rat, strain F344/DuCrj, males, in feed, site: any site (literature study), lesion: several types, types named in the paper, dosed 104 weeks, study length 113 weeks). Also, the TD50 (rat, strain F344/DuCrj, males, in feed, site: liver, lesion: hepatocellular adenoma, dosed 104 weeks, study length 113 weeks) was 109000 mg/kg/day (inactive) and the TD50 (rat, strain F344/DuCrj, males, in feed, site: subcutaneous tissue, lesion: lipoma, dosed 104 weeks, study length 113 weeks) was 15600 mg/kg/day (inactive).
On to `NNc1nc(-c2ccc([N+](=O)[O-])cc2)cs1`, for which the TD50 by setting is: (mouse, strain Swiss, females, in feed, site: all sites, lesion: lymphocytic leukemia, dosed 46 weeks, study length 66 weeks) 10.6 mg/kg/day; (mouse, strain Swiss, females, in feed, site: any site (literature study), lesion: several types, types named in the paper, dosed 46 weeks, study length 66 weeks) 8.33 mg/kg/day; (mouse, strain Swiss, females, in feed, site: lung, lesion: alveolar-cell carcinoma, dosed 46 weeks, study length 66 weeks) 25 mg/kg/day; (rat, strain Sprague-Dawley, females, in feed, site: any site (literature study), lesion: several types, types named in the paper, dosed 46 weeks, study length 75 weeks) 0.743 mg/kg/day; (rat, strain Sprague-Dawley, females, in feed, site: forestomach, lesion: squamous-cell papilloma, dosed 46 weeks, study length 75 weeks) 9 mg/kg/day; (rat, strain Sprague-Dawley, females, in feed, site: mammary gland, lesion: adenocarcinoma, dosed 45 weeks, study length 52 weeks) 9.51 mg/kg/day. Moreover, the TD50 by setting is: (rat, strain Sprague-Dawley, females, in feed, site: mammary gland, lesion: adenocarcinoma, dosed 46 weeks, study length 75 weeks) 3.78 mg/kg/day; (rat, strain Sprague-Dawley, females, in feed, site: mammary gland, lesion: several types, types named in the paper, dosed 45 weeks, study length 52 weeks) 8.66 mg/kg/day; (rat, strain Sprague-Dawley, females, in feed, site: mammary gland, lesion: several types, types named in the paper, dosed 46 weeks, study length 75 weeks) 1.97 mg/kg/day; (rat, strain Sprague-Dawley, females, in feed, site: salivary gland, lesion: adenocarcinoma, dosed 45 weeks, study length 52 weeks) 21.7 mg/kg/day.
For `O=C1C(c2[nH]c3ccc(S(=O)(=O)O)cc3c2O)=Nc2ccc(S(=O)(=O)O)cc21`, the carcinogen call (mouse, strain Charles River CD1, females, in feed, site: liver, lesion: nodular hyperplasia, dosed 84 weeks, study length 84 weeks) was “negative (inactive)”; the carcinogen call (mouse, strain Charles River CD1, females, in feed, site: lung, lesion: adenoma, dosed 84 weeks, study length 84 weeks) was “negative (inactive)”; the carcinogen call (mouse, strain Charles River CD1, males, in feed, site: lung, lesion: adenoma, dosed 84 weeks, study length 84 weeks) is “negative (inactive)”; the carcinogen call (mouse, strain Charles River CD (Sprague-Dawley), females, in feed, site: any site (literature study), lesion: several types, types named in the paper, dosed 100 weeks, study length 100 weeks) is “negative (inactive)”. The TD50 is 20200 mg/kg/day (inactive) (mouse, strain Charles River CD1, males, in feed, site: liver, lesion: nodular hyperplasia, dosed 84 weeks, study length 84 weeks); 33900 mg/kg/day (inactive) (mouse, strain Charles River CD (Sprague-Dawley), females, in feed, site: any site (literature study), lesion: malignant tumor, dosed 100 weeks, study length 100 weeks); 57100 mg/kg/day (inactive) (mouse, strain Charles River CD (Sprague-Dawley), males, in feed, site: any site (literature study), lesion: malignant tumor, dosed 95 weeks, study length 95 weeks); 23400 mg/kg/day (inactive) (mouse, strain Charles River CD (Sprague-Dawley), males, in feed, site: any site (literature study), lesion: several types, types named in the paper, dosed 95 weeks, study length 95 weeks); 5430 mg/kg/day (inactive) (rat, strain Osborne-Mendel, both sexes, in feed, site: any site (literature study), lesion: several types, types named in the paper, dosed 104 weeks, study length 104 weeks).

For the origin of these results see PubChem BioAssay AID1745844 (Carcinogenic Potency Database (CPDB), 2022).
